pKd: −log10 of the molar value.
molecular target: T1, procaspase-6 (Homo sapiens, UniProt P55212); assay: SPR binding affinity for procaspase-6 (avi-tagged, biotinylated construct on neutravidin chip, Biacore 8K); details: binding affinities for procaspase-6, SPR
T1 sequence (P55212 1-293): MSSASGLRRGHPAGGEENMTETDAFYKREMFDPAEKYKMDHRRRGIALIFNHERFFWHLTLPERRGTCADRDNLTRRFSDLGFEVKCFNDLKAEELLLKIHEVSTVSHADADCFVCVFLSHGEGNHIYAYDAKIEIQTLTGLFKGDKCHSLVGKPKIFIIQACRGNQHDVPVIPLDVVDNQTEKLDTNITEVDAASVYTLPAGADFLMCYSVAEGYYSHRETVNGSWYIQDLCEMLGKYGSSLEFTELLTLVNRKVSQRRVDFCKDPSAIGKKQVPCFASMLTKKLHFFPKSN
Text: We used SPR to assess the binding affinity of test compounds, using an avi-tagged (biotinylated) procaspase-6 construct that was captured onto a neutravidin-coated sensor chip in a Biacore 8K instrument. […] The average of the triplicate KD values for each analog was furthermore used to calculate the experimental binding energies (ΔG) provided in the figures that follow.

SMILES	pKd
c1cnnc(-c2cccnc2NCc2cccc3ocnc23)c1 [ELG-000491, N-(benzo[d]oxazol-4-ylmethyl)-3-(pyridazin-3-yl)pyridin-2-amine]	> 5.00
c1cnnc(-c2cccnc2NCc2cccc3scnc23)c1 [ELG-000507, N-(benzo[d]thiazol-4-ylmethyl)-3-(pyridazin-3-yl)pyridin-2-amine]	> 5.00
Fc1ccc(CNc2ncccc2-c2cccnn2)c2[nH]ccc12 [ELG-000504, N-((4-fluoro-1H-indol-7-yl)methyl)-3-(pyridazin-3-yl)pyridin-2-amine]	> 5.00
c1ccc(-c2cccnc2NCc2cccc3ocnc23)nc1 [ELG-000497]	4.00 to 4.30
Fc1ccc(CNc2ncccc2-c2cccnn2)c2[nH]ncc12 [ELG-000506, N-((4-fluoro-1H-indazol-7-yl)methyl)-3-(pyridazin-3-yl)pyridin-2-amine]	> 5.00
Fc1ccc(CNc2ncccc2-c2cccnn2)c2sccc12 [ELG-000515, N-((4-fluorobenzo[b]thiophen-7-yl)methyl)-3-(pyridazin-3-yl)pyridin-2-amine]	> 5.00
Fc1ccc(CNc2ncccc2-c2cccnn2)c2sncc12 [ELG-000532, N-((4-fluorobenzo[d]isothiazol-7-yl)methyl)-3-(pyridazin-3-yl)pyridin-2-amine]	4.30 to 5.00
c1ccc(-c2cccnc2NCc2cccc3scnc23)nc1 [ELG-000511]	4.00 to 4.30
Fc1ccc(CNc2ncccc2-c2ccccn2)c2[nH]ccc12 [ELG-000483]	4.00 to 4.30
Fc1ccc(CNc2ncccc2-c2ccccn2)c2occc12 [ELG-000469, N-((4-fluorobenzofuran-7-yl)methyl)-[2,3′-bipyridin]-2′-amine]	4.00 to 4.30
Fc1ccc(CNc2ncccc2-c2cccnn2)c2occc12 [ELG-000481, N-((4-fluorobenzofuran-7-yl)methyl)-3-(pyridazin-3-yl)pyridin-2-amine]	4.30 to 5.00
Fc1ccc(CNc2ncccc2-c2cccnn2)c2ncsc12 [ELG-000522, N-((7-fluorobenzo[d]thiazol-4-yl)methyl)-3-(pyridazin-3-yl)pyridin-2-amine]	> 5.00
Fc1ccc(CNc2ncccc2-c2ccccn2)c2sccc12 [ELG-000518]	4.00 to 4.30
Fc1ccc(CNc2ncccc2-c2ccccn2)c2[nH]ncc12 [ELG-000499, N-((4-fluoro-1H-indazol-7-yl)methyl)-[2,3′-bipyridin]-2′-amine]	> 5.00
Fc1ccc(CNc2ncccc2-c2ccccn2)c2sncc12 [ELG-000549, N-((4-fluorobenzo[d]isothiazol-7-yl)methyl)-[2,3′-bipyridin]-2′-amine]	< 4.00

Results, then the molecule that gave them:

pKd	SMILES
4.00 to 4.30	c1cnc(NCc2cccc3ocnc23)c(-c2ncc[nH]2)c1 [ELG-000537, N-(benzo[d]oxazol-4-ylmethyl)-3-(1H-imidazol-2-yl)pyridin-2-amine]
> 5.00	Fc1ccc(CNc2ncccc2-c2ncc[nH]2)c2[nH]ncc12 [ELG-000525, N-((4-fluoro-1H-indazol-7-yl)methyl)-3-(1H-imidazol-2-yl)pyridin-2-amine]
< 4.00	c1cnc(NCc2cccc3ccsc23)c(-c2ncc[nH]2)c1 [ELG-000534, N-(benzo[b]thiophen-7-ylmethyl)-3-(1H-imidazol-2-yl)pyridin-2-amine]
4.00 to 4.30	c1ccc(-c2cccnc2NCc2cccc3cn[nH]c23)nc1 [ELG-000472, N-((1H-indazol-7-yl)methyl)-[2,3′-bipyridin]-2′-amine]
4.30 to 5.00	Fc1ccc(CNc2ncccc2-c2ncc[nH]2)c2ncsc12 [ELG-000526, N-((7-fluorobenzo[d]thiazol-4-yl)methyl)-3-(1H-imidazol-2-yl)pyridin-2-amine]
4.30 to 5.00	c1cnc(NCc2cccc3cnoc23)c(-c2ncc[nH]2)c1 [ELG-000560, N-(benzo[d]isoxazol-7-ylmethyl)-3-(1H-imidazol-2-yl)pyridin-2-amine]
4.00 to 4.30	c1ccc(-c2cccnc2NCc2cccc3ccoc23)nc1 [ELG-000468, N-(benzofuran-7-ylmethyl)-[2,3′-bipyridin]-2′-amine]
4.00 to 4.30	c1ccc(-c2cccnc2NCc2cccc3cnoc23)nc1 [ELG-000567, N-(benzo[d]isoxazol-7-ylmethyl)-[2,3′-bipyridin]-2′-amine]
4.00 to 4.30	c1ccc(-c2cccnc2NCc2cccc3cc[nH]c23)nc1 [ELG-000463]
4.30 to 5.00	Fc1ccc(CNc2ncccc2-c2ncc[nH]2)c2[nH]ccc12 [ELG-000536, N-((4-fluoro-1H-indol-7-yl)methyl)-3-(1H-imidazol-2-yl)pyridine-2-amine]
4.30 to 5.00	c1cnc(NCc2cccc3cn[nH]c23)c(-c2ncc[nH]2)c1 [ELG-000538, N-((1H-indazol-7-yl)methyl)-3-(1H-imidazol-2-yl)pyridin-2-amine]
4.00 to 4.30	c1ccc(-c2cccnc2NCc2cccc3cnsc23)nc1 [ELG-000552, N-(benzo[d]isothiazol-7-ylmethyl)-[2,3′-bipyridin]-2′-amine]
4.30 to 5.00	c1cnc(NCc2cccc3cc[nH]c23)c(-c2ncc[nH]2)c1 [ELG-000523, N-((1H-indol-7-yl)methyl)-3-(1H-imidazol-2-yl)pyridin-2-amine]
4.00 to 4.30	Fc1ccc(CNc2ncccc2-c2ncc[nH]2)c2sncc12 [ELG-000548]
4.00 to 4.30	c1ccc(-c2cccnc2NCc2cccc3ccsc23)nc1 [ELG-000510, N-(benzo[b]thiophen-7-ylmethyl)-[2,3′-bipyridin]-2′-amine]
4.30 to 5.00	Fc1ccc(CNc2ncccc2-c2ncc[nH]2)c2sccc12 [ELG-000530, N-((4-fluorobenzo[b]thiophen-7-yl)methyl)-3-(1H-imidazol-2-yl)pyridin-2-amine]
4.00 to 4.30	c1cnnc(-c2cccnc2NCc2cccc3cnsc23)c1 [ELG-000559]
4.30 to 5.00	c1cnnc(-c2cccnc2NCc2cccc3ccoc23)c1 [ELG-000488, N-(benzofuran-7-ylmethyl)-3-(pyridazin-3-yl) pyridin-2-amine]
4.30 to 5.00	c1cnnc(-c2cccnc2NCc2cccc3ccsc23)c1 [ELG-000502, N-(benzo[b]thiophen-7-ylmethyl)-3-(pyridazin-3-yl)pyridin-2-amine]
4.00 to 4.30	c1cnc(NCc2cccc3cnsc23)c(-c2ncc[nH]2)c1 [ELG-000558]
4.00 to 4.30	c1cnc(NCc2cccc3ccoc23)c(-c2ncc[nH]2)c1 [ELG-000535]
4.00 to 4.30	c1cnnc(-c2cccnc2NCc2cccc3cnoc23)c1 [ELG-000563]
4.00 to 4.30	c1cnc(NCc2cccc3scnc23)c(-c2ncc[nH]2)c1 [ELG-000531, N-(benzo[d]thiazol-4-ylmethyl)-3-(1H-imidazol-2-yl)pyridin-2-amine]

Reference: patent US20260200893A1, “INHIBITORS OF PROCASPASE-6 ACTIVATION AND USES THEREOF” (THE REGENTS OF THE UNIVERSITY OF CALIFORNIA, priority 2022, published 2026)
